For data set [1], the system named is BLT2-expressing cells [BLT2가 발현된 세포 (CHO-BLT2 cells)]. The experiment in a line: LPA-induced chemotactic motility (Transwell), CHO-BLT2. It is filed as cell-based, human.
The test system is the same in data set [2]. The experiment in a line: LTB4-induced BLT2-dependent chemotactic motility (Transwell), CHO-BLT2. Format: cell-based, human. To be noted: for inhibition of chemotaxis: LTB4-stimulated CHO-BLT2 cells, result in words; for inhibition at 10 µM: 10 μM pretreatment, compared with LTB4 (300 nM) treatment (DMSO+), read-out: chemotaxis inhibition; for IC50: read-out: IC50 (50% inhibitory concentration), chemotaxis, CHO-BLT2 cells, LTB4-induced, serum-free.

The test system of data set [3] is BLT1-expressing cells [BLT1이 발현된 세포 (CHO-BLT1)]. Briefly: LTB4-induced chemotactic motility (Transwell), CHO-BLT1. It is filed as cell-based.
The subject of data set [4] is BLT2-expressing cells [BLT2가 발현된 세포 (CHO-BLT2 cells)]. Briefly: Growth inhibition of BLT2-expressing cells (MTT cell viability). It is filed as cell-based. To be noted: for inhibition at 10 µM: 10 μM pretreatment 1 h, then LTB4 300 nM, 24 h, read-out: growth inhibition effect; for inhibition of BLT2-induced cell proliferation: 10 μM, LTB4 300 nM, result in words.
Data set [5] concerns reactive oxygen species (ROS). The experiment in a line: ROS measurement in BALF, cigarette smoke and LPS induced COPD mice. To be noted: C57BL/6N mice, oral 1 h before smoke, result in words. It is filed as in vivo, mouse.
For data set [6], the system named is IL-6. Briefly: IL-6 measurement in BALF, cigarette smoke and LPS induced COPD mice. It is filed as in vivo, mouse. To be noted: C57BL/6N mice, oral 1 h before smoke, result in words.
The test system of data set [7] is inflammatory cells (neutrophils) [염증세포(호중구)]. The experiment in a line: Inflammatory cell infiltration in BALF, cigarette smoke and LPS induced COPD mice. It is filed as in vivo, mouse. To be noted: C57BL/6N mice, oral 1 h before smoke, result in words.
Data set [8] deals with TNF-α. Briefly: TNF-α measurement in BALF, cigarette smoke and LPS induced COPD mice. Format: in vivo, mouse. The settings on record: C57BL/6N mice, oral 1 h before smoke, result in words.
In data set [9] the test system is neutrophil elastase (NE). Briefly: NE measurement in BALF, cigarette smoke and LPS induced COPD mice. Format: in vivo, mouse. The settings on record: C57BL/6N mice, oral 1 h before smoke, result in words.
Data set [10] has as its system cigarette smoke and lipopolysaccharide induced chronic obstructive pulmonary disease animal model [담배연기 및 지질다당류로 유발된 만성 폐쇄성 폐질환 동물 모델]. The experiment in a line: H&E staining of lung tissue, cigarette smoke and LPS induced COPD mice. Format: in vivo, mouse. To be noted: C57BL/6N mice; for improvement of lung inflammation: cigarette smoke + LPS COPD model, overall result in words; for infiltration of inflammatory cells (H&E): cigarette smoke + LPS, 10 or 20 mg/kg oral, lung tissue, compared with COPD group, result in words.

Setting [11] is: 10 μM pretreatment, compared with LTB4 (10 nM) treatment (DMSO+), result in words.

Consider 19 compounds from patent KR20180087157A, “Blt 저해 활성을 갖는 화합물을 유효성분으로 포함하는 만성 폐쇄성 폐질환 예방 또는 치료용 약학적 조성물” (동국대학교 산학협력단, priority 2017, dated 2018).

SMILES strings stand for the structures.

As to `CCCCC(=O)N(Cc1ccc(-c2ccc(OCC(=O)O)cc2)cc1)c1cccc(F)c1` [AC-1074, 2-(4'-((N-(3-fluorophenyl)pentanamido)methyl)biphenyl-4-yloxy)acetic acid], the change in chemotaxis entry is given as “변화가 없음” in data set [1] (10 μM pretreatment, compared with LPA (100 nM) treatment (DMSO+), result in words) and “변화가 없음” in [3] (setting [11]). Moreover, the inhibition of chemotaxis entry in data set [2] is “현저히 저해”.

As to `CCCCC(=O)N(CC#Cc1ccc(C(=O)NCCN(C)C)cc1)c1ccccc1` [LMT-1016, N-(2-(dimethylamino)ethyl)-4-(3-(N-phenylpentanamido)prop-1-yn-1-yl)benzamide], in data set [4], the inhibition at 10 µM was 99% and the “inhibition of BLT2-induced cell proliferation” value is “매우 우수한 효율로 억제”.

In the case of `CCCCC(=O)N(CC#Cc1ccc(C(=O)N(CC)CC)cc1)c1ccccc1` [LMT-883, N,N-diethyl-4-(3-(N-phenylpentanamido)prop-1-ynyl)benzamide], in [4], the inhibition at 10 µM came to 99% and the “inhibition of BLT2-induced cell proliferation” value is “매우 우수한 효율로 억제”.

As to `CCCCCCCC/C=C\CCCCCCCC(=O)OC[C@@H](O)COP(=O)(O)O` [LPA, lysophosphatidic acid, reference compound], in data set [1] (Homo sapiens, 3 h, LPA 100 nM (DMSO+) compared with ethanol (DMSO-), read-out: increase in cell chemotaxis), the fold induction at 0.1 µM was 3.4.

As for `CCCCC(=O)N(CC#Cc1ccc(C(=O)N2CCNCC2)cc1)c1ccccc1` [LMT-694, N-phenyl-N-(3-(4-(piperazine-1-carbonyl)phenyl)prop-2-ynyl)pentanamide], the inhibition at 10 µM in [2] (Homo sapiens) came out at 90%. Besides, the chemotaxis inhibition result in [3] (setting [11]) is “억제되지 않음”.

`CCCCC(=O)N(CC#Cc1ccc(C(=O)NC(C)C(=O)OC)cc1)c1ccccc1` (centres unmarked) [LMT-1018, methyl 2-(4-(3-(N-phenylpentanamido)prop-1-yn-1-yl)benzamido)propanoate]: in [4], the inhibition at 10 µM is 71.6% and the “inhibition of BLT2-induced cell proliferation” value is given as “매우 우수한 효율로 억제”.

Regarding `CCCCC(=O)N(CC#Cc1ccc(C(=O)N2CCN(C(C)C)CC2)cc1)c1ccc(F)cc1` [LMT-841, N-(4-fluorophenyl)-N-(3-(4-(4-isopropylpiperazine-1-carbonyl)phenyl)prop-2-ynyl)pentanamide], in data set [4], the inhibition at 10 µM is 60% and the “inhibition of BLT2-induced cell proliferation” value was “매우 우수한 효율로 억제”.

As to `CCCCC/C=C\C[C@@H](O)/C=C/C=C/C=C\[C@@H](O)CCCC(=O)O` [LTB4, Leukotriene B4, reference compound], in data set [2] (Homo sapiens, 3 h, LTB4 300 nM (DMSO+) compared with ethanol (DMSO-), read-out: increase in cell chemotaxis), the fold induction at 0.3 µM turned out to be 2.4. The “increase in cell chemotaxis” value in data set [2] (LTB4 300 nM (DMSO+) compared with ethanol (DMSO-), 180 min, 0.3 µM) was determined as 2.9 fold; in data set [3] (cho-blt1 cells, 3 h, 0.01 µM), 2.8 fold. In addition, the fold induction at 0.01 µM in data set [3] (3 h, LTB4 10 nM (DMSO+) compared with ethanol (DMSO-), read-out: increase in cell chemotaxis) came out at 2.2.

As to `CCCCC(=O)N(Cc1ccc(-c2ccc(C(=O)N3CCN(C(C)C)CC3)cc2)cc1)c1ccc(F)cc1` [AC-1650, N-(4-fluorophenyl)-N-((4'-(4-isopropylpiperazine-1-carbonyl)biphenyl-4-yl)methyl)pentanamide], in [4], the inhibition at 10 µM was determined as 82.2% and the “inhibition of BLT2-induced cell proliferation” value is on record as “매우 우수한 효율로 억제”.

Turning to `COc1ccc(-c2ccc(CN(C(C)=O)c3cccc(F)c3)cc2)cc1` [AC-1646, N-(3-fluorophenyl)-N-((4'-methoxybiphenyl-4-yl)methyl)acetamide], in data set [4], the inhibition at 10 µM came out at 72.1% and the “inhibition of BLT2-induced cell proliferation” value is recorded as “매우 우수한 효율로 억제”.

In the case of `CCCCC(=O)N(CC#Cc1ccc(C(=O)N2CCN(C(C)C)CC2)cc1)c1ccccc1` [LMT-696, N-(3-(4-(4-isopropylpiperazine-1-carbonyl)phenyl)prop-2-ynyl)-N-phenylpentanamide], in data set [4], the “inhibition of BLT2-induced cell proliferation” value is reported as “매우 우수한 효율로 억제”. Further, in [2] (Homo sapiens), the IC50 amounted to 2000 nM and the inhibition at 10 µM is 70.3%. The inhibition of chemotaxis entry in [2] is “현저히 저해”. The chemotaxis inhibition result in data set [3] (setting [11]) is “억제되지 않음”.

`CCCCC(=O)N(CC#Cc1cccc(C(=O)N2CCNCC2)c1)c1ccccc1` [LMT-837, N-phenyl-N-(3-(3-(piperazine-1-carbonyl)phenyl)prop-2-ynyl)pentanamide]: in data set [4], the inhibition at 10 µM was 65% and the “inhibition of BLT2-induced cell proliferation” value is on record as “매우 우수한 효율로 억제”.

Take `CCCCC(=O)N(Cc1ccc(-c2ccc(O)cc2)cc1)c1cccc(Br)c1` [AC-1632, N-(3-bromophenyl)-N-((4'-hydroxybiphenyl-4-yl)methyl)pentanamide]: in [4], the inhibition at 10 µM is 78.7% and the “inhibition of BLT2-induced cell proliferation” value is given as “매우 우수한 효율로 억제”.

With `CCCCC(=O)N(Cc1ccc(-c2ccc(O)cc2)cc1)c1cccc(C(F)(F)F)c1` [AC-1635, N-((4'-hydroxybiphenyl-4-yl)methyl)-N-(3-(trifluoromethyl)phenyl)pentanamide], in [4], the inhibition at 10 µM is 71.6% and the “inhibition of BLT2-induced cell proliferation” value is recorded as “매우 우수한 효율로 억제”.

`CCCCC(=O)N(CC#Cc1ccc(C(=O)N2CCN(C)CC2)cc1)c1ccccc1` [LMT-692, N-(3-(4-(4-methylpiperazine-1-carbonyl)phenyl)prop-2-ynyl)-N-phenylpentanamide]: in data set [4], the “inhibition of BLT2-induced cell proliferation” value is on record as “매우 우수한 효율로 억제”. Further, in [2] (Homo sapiens), the IC50 was found to be 7570 nM and the inhibition at 10 µM stood at 66%. Moreover, in [2], the inhibition of chemotaxis entry is recorded as “현저히 저해”. Also, the chemotaxis inhibition result in data set [3] (setting [11]) is recorded as “억제되지 않음”.

In the case of `CCCCC(=O)N(CC#Cc1cccc(C(=O)N2CCN(C(C)C)CC2)c1)c1ccccc1` [LMT-842, N-(3-(3-(4-isopropylpiperazine-1-carbonyl)phenyl)prop-2-ynyl)-N-phenylpentanamide], in [4], the inhibition at 10 µM was determined as 70% and the “inhibition of BLT2-induced cell proliferation” value is “매우 우수한 효율로 억제”.

Take `CCCCC(=O)N(CC#Cc1ccc(C(=O)O)cc1)c1ccccc1` [LMT-1013, 4-(3-(N-phenylpentanamido)prop-1-yn-1-yl)benzoic acid]: the ROS production entry in data set [5] is “유의적으로 감소”. The “inhibition of BLT2-induced cell proliferation” value in data set [4] is “매우 우수한 효율로 억제”. Also, the IL-6 production result in data set [6] is reported as “현저히 감소”. For the same compound, the IC50 in data set [2] (Homo sapiens) was found to be 62.4 nM. In addition, the inhibition of chemotaxis result in data set [2] is “현저히 저해”. The IC50 in data set [3] (read-out: IC50 (50% inhibitory concentration), chemotaxis, CHO-BLT1 cells, LTB4-induced, serum-free) is not below 10000 nM. In data set [7], the “infiltration of inflammatory cells (neutrophils)” value is given as “유의적으로 감소”. The TNF-α production entry in data set [8] is “현저히 감소”. For the same compound, the NE production entry in data set [9] is listed as “유의적으로 감소”. Also, in data set [10], the “improvement of lung inflammation” value is reported as “폐의 염증을 개선하는 효능” and the “infiltration of inflammatory cells (H&E)” value is “감소”.

In the case of `CCCCC(=O)N(CC#Cc1ccc(C(=O)NC(C)C(=O)O)cc1)c1ccccc1` (centres unmarked) [LMT-1019, 2-(4-(3-(N-phenylpentanamido)prop-1-yn-1-yl)benzamido)propanoic acid], in data set [4], the inhibition at 10 µM was 99% and the “inhibition of BLT2-induced cell proliferation” value is on record as “매우 우수한 효율로 억제”.

With `CCCCC(=O)N(CC#Cc1ccc(C(=O)N2CCN(C(C)C)CC2)cc1)c1cccc(F)c1` [LMT-886, N-(3-fluorophenyl)-N-(3-(4-(4-isopropylpiperazine-1-carbonyl)phenyl)prop-2-ynyl)pentanamide], the ROS production result in [5] is “유의적으로 감소”. For the same compound, in data set [4], the inhibition at 10 µM came to 99% and the “inhibition of BLT2-induced cell proliferation” value is reported as “매우 우수한 효율로 억제”. Besides, the IL-6 production entry in [6] was “현저히 감소”. For the same compound, the “infiltration of inflammatory cells (neutrophils)” value in [7] was “유의적으로 감소”. Besides, the TNF-α production result in data set [8] is recorded as “현저히 감소”. In [9], the NE production entry is “유의적으로 감소”. In [10], the “improvement of lung inflammation” value was “폐의 염증을 개선하는 효능” and the “infiltration of inflammatory cells (H&E)” value is reported as “감소”.

For orientation: inhibition means the relative decrease from the control value, in per cent.
